The test system of this data set is CCRIS mutagenicity, Ames/micronucleus/aberration tests. The data set can be described thus: CCRIS mutagenicity studies.
Where [1] appears, read: Test System: AMES SALMONELLA TYPHIMURIUM, Strain/Indicator: TA97, Metabolic Activation: HAMSTER, LIVER, S-9, AROCLOR 1254 (10 OR 30%), Method: PREINCUBATION
Where [2] appears, read: Test System: AMES SALMONELLA TYPHIMURIUM, Strain/Indicator: TA97, Metabolic Activation: NONE, Method: PREINCUBATION
Setting [3] is: Test System: AMES SALMONELLA TYPHIMURIUM, Strain/Indicator: TA97, Metabolic Activation: RAT, LIVER, S-9, AROCLOR 1254 (10 OR 30%), Method: PREINCUBATION
Setting [4] is: Test System: AMES SALMONELLA TYPHIMURIUM, Strain/Indicator: TA98, Metabolic Activation: HAMSTER, LIVER, S-9, AROCLOR 1254 (10 OR 30%), Method: PREINCUBATION
Where [5] appears, read: Test System: AMES SALMONELLA TYPHIMURIUM, Strain/Indicator: TA98, Metabolic Activation: NONE, Method: PREINCUBATION
Setting [6] is: Test System: AMES SALMONELLA TYPHIMURIUM, Strain/Indicator: TA98, Metabolic Activation: RAT, LIVER, S-9, AROCLOR 1254 (10 OR 30%), Method: PREINCUBATION
Where [7] appears, read: Test System: AMES SALMONELLA TYPHIMURIUM, Strain/Indicator: TA100, Metabolic Activation: HAMSTER, LIVER, S-9, AROCLOR 1254 (10 OR 30%), Method: PREINCUBATION
The mark [8] stands for this setting: Test System: AMES SALMONELLA TYPHIMURIUM, Strain/Indicator: TA100, Metabolic Activation: NONE, Method: PREINCUBATION
Setting [9] is: Test System: AMES SALMONELLA TYPHIMURIUM, Strain/Indicator: TA100, Metabolic Activation: RAT, LIVER, S-9, AROCLOR 1254 (10 OR 30%), Method: PREINCUBATION
Setting [10] is: Test System: AMES SALMONELLA TYPHIMURIUM, Strain/Indicator: TA1535, Metabolic Activation: HAMSTER, LIVER, S-9, AROCLOR 1254 (10 OR 30%), Method: PREINCUBATION
Where [11] appears, read: Test System: AMES SALMONELLA TYPHIMURIUM, Strain/Indicator: TA1535, Metabolic Activation: NONE, Method: PREINCUBATION
[12] abbreviates: Test System: AMES SALMONELLA TYPHIMURIUM, Strain/Indicator: TA1535, Metabolic Activation: RAT, LIVER, S-9, AROCLOR 1254 (10 OR 30%), Method: PREINCUBATION

Active and inactive are the calls of the source. How the calls were made is not given here.

The results in this text go back to PubChem BioAssay AID1259407 (Chemical Carcinogenesis Research Information System (CCRIS), 2018).

Regarding `[K+]`, the mutagenic call is “inactive; negative” (End Point: IN VIVO MICRONUCLEUS, Test System: BONE MARROW POLYCHROMATIC ERYTHROCYTES, Species: MOUSE, Strain/Sex: DDY/MALE, Route: IP); “active; positive (structural changes)” (End Point: In vitro chromosomal aberrations, Test System: Chinese hamster lung (CHL) cells, Metabolic Activation: None); “inactive; negative” under setting [1]; “inactive; negative” under setting [2]; “inactive; negative” under setting [3]; “inactive; negative” under setting [4]. For the same compound, the mutagenic call under setting [5] is “inactive; negative”; the mutagenic call under setting [6] is “inactive; negative”; the mutagenic call under setting [7] is “inactive; negative”; the mutagenic call under setting [8] is “inactive; negative”; the mutagenic call under setting [9] was “inactive; negative”; the mutagenic call under setting [10] was “inactive; negative”. For the same compound, the mutagenic call under setting [11] is “inactive; negative” and the mutagenic call under setting [12] was “inactive; negative”.
Regarding `Clc1cccnc1`, the mutagenic call (Test System: AMES SALMONELLA TYPHIMURIUM, Strain/Indicator: TA97, Metabolic Activation: NONE, Method: STANDARD PLATE) was “inactive; negative”; the mutagenic call (Test System: AMES SALMONELLA TYPHIMURIUM, Strain/Indicator: TA97, Metabolic Activation: RAT, LIVER, S-9, AROCLOR 1254, Method: STANDARD PLATE) is “inactive; negative”; the mutagenic call (Test System: AMES SALMONELLA TYPHIMURIUM, Strain/Indicator: TA98, Metabolic Activation: NONE, Method: STANDARD PLATE) is “inactive; negative”; the mutagenic call (Test System: AMES SALMONELLA TYPHIMURIUM, Strain/Indicator: TA98, Metabolic Activation: RAT, LIVER, S-9, AROCLOR 1254, Method: STANDARD PLATE) was “inactive; negative”; the mutagenic call (Test System: AMES SALMONELLA TYPHIMURIUM, Strain/Indicator: TA100, Metabolic Activation: NONE, Method: STANDARD PLATE) is “inactive; negative”; the mutagenic call (Test System: AMES SALMONELLA TYPHIMURIUM, Strain/Indicator: TA100, Metabolic Activation: RAT, LIVER, S-9, AROCLOR 1254, Method: STANDARD PLATE) was “inactive; negative”. Besides, the mutagenic call by setting is: (Test System: AMES SALMONELLA TYPHIMURIUM, Strain/Indicator: TA102, Metabolic Activation: NONE, Method: STANDARD PLATE) “inactive; negative”; (Test System: AMES SALMONELLA TYPHIMURIUM, Strain/Indicator: TA102, Metabolic Activation: RAT, LIVER, S-9, AROCLOR 1254, Method: STANDARD PLATE) “inactive; negative”; (Test System: MOUSE LYMPHOMA, Strain/Indicator: L5178Y (TK+/TK-), Metabolic Activation: NONE) “active; positive”; (Test System: MOUSE LYMPHOMA, Strain/Indicator: L5178Y (TK+/TK-), Metabolic Activation: RAT, LIVER, S-9, AROCLOR 1254) “active; positive”.
For `CCCCCN(CCCCO)N=O`, the mutagenic call (Test System: AMES SALMONELLA TYPHIMURIUM, Strain/Indicator: TA1535, Metabolic Activation: RAT, LIVER, S-9, KANECHLOR 500 OR PHENOBARBITAL, Method: LIQUID SUSPENSION) is “active; positive”.
Take `N[C@@H](CS)C(=O)OC(=O)NCCCl`: the mutagenic call (Test System: AMES SALMONELLA TYPHIMURIUM, Strain/Indicator: TA1535, Metabolic Activation: NONE, Method: STANDARD PLATE) is “active; positive”.
Consider `COC=O`, for which the mutagenic call reads like this: under setting [1], “inactive; negative”; under setting [2], “inactive; negative”; under setting [3], “inactive; negative”; under setting [4], “inactive; negative”; (Test System: AMES SALMONELLA TYPHIMURIUM, Strain/Indicator: TA98, Metabolic Activation: NONE, Method: GAS EXPOSURE) “inactive; negative”; under setting [5], “inactive; negative”. Besides, the mutagenic call under setting [6] is “inactive; negative”; the mutagenic call (Test System: AMES SALMONELLA TYPHIMURIUM, Strain/Indicator: TA98, Metabolic Activation: RAT, LIVER, S-9, SODIUM PHENOBARBITAL AND 5,6-BENZOFLAVONE, Method: GAS EXPOSURE) was “inactive; negative”; the mutagenic call under setting [7] is “inactive; negative”; the mutagenic call (Test System: AMES SALMONELLA TYPHIMURIUM, Strain/Indicator: TA100, Metabolic Activation: NONE, Method: GAS EXPOSURE) was “inactive; negative”; the mutagenic call under setting [8] was “inactive; negative”; the mutagenic call under setting [9] was “inactive; negative”. For the same compound, the mutagenic call runs as follows: (Test System: AMES SALMONELLA TYPHIMURIUM, Strain/Indicator: TA100, Metabolic Activation: RAT, LIVER, S-9, SODIUM PHENOBARBITAL AND 5,6-BENZOFLAVONE, Method: GAS EXPOSURE) “inactive; negative”; under setting [10], “inactive; negative”; (Test System: AMES SALMONELLA TYPHIMURIUM, Strain/Indicator: TA1535, Metabolic Activation: NONE, Method: GAS EXPOSURE) “inactive; negative”; under setting [11], “inactive; negative”; under setting [12], “inactive; negative”; (Test System: AMES SALMONELLA TYPHIMURIUM, Strain/Indicator: TA1535, Metabolic Activation: RAT, LIVER, S-9, SODIUM PHENOBARBITAL AND 5,6-BENZOFLAVONE, Method: GAS EXPOSURE) “inactive; negative”. The mutagenic call is, setting by setting: (Test System: AMES SALMONELLA TYPHIMURIUM, Strain/Indicator: TA1537, Metabolic Activation: NONE, Method: GAS EXPOSURE) “inactive; negative”; (Test System: AMES SALMONELLA TYPHIMURIUM, Strain/Indicator: TA1537, Metabolic Activation: RAT, LIVER, S-9, SODIUM PHENOBARBITAL AND 5,6-BENZOFLAVONE, Method: GAS EXPOSURE) “inactive; negative”; (Test System: E. COLI, Strain/Indicator: WP2UVRA, Metabolic Activation: NONE, Method: GAS EXPOSURE) “inactive; negative”; (Test System: E. COLI, Strain/Indicator: WP2UVRA, Metabolic Activation: RAT, LIVER, S-9, PHENOBARBITAL AND BETA--NAPHTHOFLAVONE, Method: GAS EXPOSURE) “inactive; negative”.
